Key:
[1] = Plasma stability, human plasma (HPLC-MS); assay type: in vitro ADME; conditions: 2 μM, 37° C., 120 min
Method: (§1) Plasma Stability Determination of the Test Compounds in Rat, Dog, Cynomolgus Monkey and human plasma is performed using HPLC-MS. For rat, incubations are carried out in 96-well polypropylene plates in 5 aliquots of 70 μL each (one for each time point). […] Five time points are analyzed (0, 15, 120, 480 and 1440 min). […] All incubations are performed in duplicates. The samples are analyzed by HPLC-MS. The percentage of parent compound remaining after incubation in plasma is determined.

[2] = Liver S9 fraction stability, dog; assay type: in vitro ADME; conditions: dog liver S9 1.0 mg/ml, 2 μM, 37° C.
Method: (§2) Liver S9 fraction stability determination of the test compounds in dog, cynomolgus monkey and human is performed using HPLC-MS. Test compound (2 μM, 0.1% DMSO, 1% Methanol final concentration) was assessed for stability in a 50 μl phosphate buffer containing 1.0 mg/ml S9 protein from each of the three species and 5 mM D-saccharic acid-1, 4-lactone. Samples were incubated at 37° C. for 60 minutes and the % compound remaining was assessed.

[3] = Liver S9 fraction stability, monkey; assay type: in vitro ADME, cynomolgus monkey; conditions: monkey liver S9 1.0 mg/ml, 2 μM, 37° C.
Method: as §2

[4] = Liver S9 fraction stability, human; assay type: in vitro ADME; conditions: human liver S9 1.0 mg/ml, 2 μM, 37° C.
Method: as §2

[5] = Plasma stability, monkey plasma (HPLC-MS); assay type: in vitro ADME, Cynomolgus Monkey; conditions: 2 μM, 37° C.
Method: as §1

[6] = Polymorph screening of solid state drug substances (Table 23); assay type: physicochemical; conditions: stirred 50 °C 72 hours; for Dry method and appearance: dried solid
[7] = in vivo; cited from earlier work

In the case of `CCCCCCCCCCCC(=O)OCN1C(=O)CCc2ccc(OCCCCN3CCN(c4cccc(Cl)c4Cl)CC3)cc21` [Aripiprazole lauroxil, reference compound], the “% remaining at time point in minutes, 120 min” value [1] is reported as 80%, the “% remaining at 60 minutes, Dog” value [2] is reported as 66.1% and the “% remaining at 60 minutes, Monkey” value [3] is reported as 56.6%. For the same compound, the “% remaining at 60 minutes, Human” value [4] was 47.8%.

For `CCCCCCCCCCCCCCCC(=O)OC1CCCn2c1nc(C)c(CCN1CCC(c3noc4cc(F)ccc34)CC1)c2=O` (centres unmarked) [Paliperidone palmitate, reference compound], the “% remaining at time point in minutes, 15 min” value [5] was 92%, the “% remaining at 60 minutes, Dog” value [2] was 56.4% and the “% remaining at 60 minutes, Monkey” value [3] was 57.4%. For the same compound, the “% remaining at 60 minutes, Human” value [4] was 47.8%.

In the case of `C=C1CC[C@@]2(O)C3Cc4ccc(OC(=O)NC(C)(C)C)c5c4[C@@]2(CCN3CC2CC2)[C@H]1O5` [Compound 40, (4aS,7aS,12bS)-3-(cyclopropylmethyl)-4a-hydroxy-7-methylene-2,3,4,4a,5,6,7,7a-octahydro-1H-4,12-methanobenzofuro[3,2-e]isoquinolin-9-yl tert-butylcarbamate], the “XRPD results (Dried)” value ([6]; Acetone) is reported as “Amorphous”, the “Dry method and appearance” value ([6]; Acetone) is reported as “Evaporation/white powder” and the “XRPD results (Dried)” value ([6]; EtOAc) is reported as “Pattern A”. For the same compound, the “Dry method and appearance” value ([6]; EtOAc) was “Evaporation/white powder”, the “XRPD results (Dried)” value ([6]; Heptane) was “Pattern A” and the “Dry method and appearance” value ([6]; Heptane) was “Centrifugation/white powder”. The “XRPD results (Dried)” value ([6]; Isopropanol) was “Amorphous”, the “Dry method and appearance” value ([6]; Isopropanol) was “Evaporation/oil” and the “XRPD results (Dried)” value ([6]; MTBE) was “Amorphous”. The “Dry method and appearance” value ([6]; MTBE) was “Evaporation/white powder” and the melting point was 107.6 °C.

For `Oc1ccc2c3c1O[C@H]1[C@H](O)CC[C@@]4(O)[C@@H](C2)N(CC2CC2)CC[C@]314` [6-β-naltrexol], the mean elimination half-life [7] is given as “thirteen”.

Source: patent US20190308988A1, “OPIOID RECEPTOR ANTAGONIST PRODRUGS” (Nirsum Laboratories, Inc., priority 2017, published 2019)
